Data published in article PMC12543283, “TastepepAI: An artificial intelligence platform for taste peptide de novo design” (PLOS Computational Biology, 2025).
Ends that are not written are not given here.

Experiments:
[1] = tested on: human bronchial epithelial cells (BEAS-2B)
[2] = Electronic tongue analysis (Taste-Sensing System SA 402B); design: unit not given here; conditions: reference solution 30 mM KCl + 0.3 mM tartaric acid as baseline, first measurement excluded; for Umami: sensor AAE; for Umami / Bitter / Sweet: detection threshold 0, room temperature; for Umami / Bitter / Sour / Salty: four replicates; for Sour: detection threshold -13, room temperature; for Salty: detection threshold -6, room temperature; for Sweet: measured five times
Method in brief: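 Samples were tested at 0.1 and 1.0 mg/mL on an SA 402B e-tongue fitted with sourness, saltiness, bitterness, sweetness and umami sensors, with 30 mM KCl/0.3 mM tartaric acid as reference and baseline. Thresholds were −13 for sour, −6 for salty and 0 for the rest. Runs at room temperature: four replicates, five for sweetness, first reading discarded.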

[3] = tested on: human pancreatic ductal epithelial cells (HPNE)
[4] = tested on: human embryonic kidney cells (HEK293T)
Procedure: The cytotoxicity of 73 synthetic peptides was evaluated using four human cell lines: human pancreatic ductal epithelial cells (HPNE), human embryonic kidney cells (HEK293T), human umbilical vein endothelial cells (HUVEC), and human bronchial epithelial cells (BEAS-2B). When cell density reached 70% confluence, the complete culture medium was replaced with serum-free maintenance medium, and peptides were added at a final concentration of 100 μM for 36 h. Control groups received only serum-free maintenance medium without peptides. Cell proliferation was assessed using the CCK-8 assay kit (Solarbio, CA1210) according to the manufacturer’s instructions.

[5] = tested on: human umbilical vein endothelial cells (HUVEC)

| Substance | Average cell viability, BEAS-2B [1] | Cell viability, BEAS-2B, Data1 [1] | Cell viability, BEAS-2B, Data2 [1] | Cell viability, BEAS-2B, Data3 [1] | Umami ([2]; peptide 0.1 mg/mL) | Umami ([2]; peptide 1 mg/mL) | Bitter ([2]; sensor C00, peptide 0.1 mg/mL) | Bitter ([2]; sensor C00, peptide 1 mg/mL) | Sour ([2]; sensor CA0, peptide 0.1 mg/mL) | Sour ([2]; sensor CA0, peptide 1 mg/mL) | Salty ([2]; sensor CT0, peptide 0.1 mg/mL) | Salty ([2]; sensor CT0, peptide 1 mg/mL) | Sweet ([2]; sensor GL1, peptide 0.1 mg/mL) | Sweet ([2]; sensor GL1, peptide 1 mg/mL) | Average cell viability, HPNE [3] | Cell viability, HPNE, Data1 [3] | Cell viability, HPNE, Data2 [3] | Cell viability, HPNE, Data3 [3] | Average cell viability, HEK293T [4] | Cell viability, HEK293T, Data1 [4] | also measured |
| --- | --- | --- | --- | --- | --- | --- | --- | --- | --- | --- | --- | --- | --- | --- | --- | --- | --- | --- | --- | --- | --- |
| SLEYEFK [TaPep38] | 103.09 | 93.12 | 112.36 | 103.79 | 2.66 | -3.92 | 7.67 | 3.12 | -5.92 | 9.17 | -19.89 | 10.85 | 7.68 | -5.11 | 96.57 | 86.36 | 94.14 | 109.22 | 98.90 | 94.16 | Cell viability, HEK293T, Data2 [4]: 101.26; Cell viability, HEK293T, Data3 [4]: 101.26; Average cell viability, HUVEC [5]: 107.74; Cell viability, HUVEC, Data1 [5]: 112.64; Cell viability, HUVEC, Data2 [5]: 110.32; Cell viability, HUVEC, Data3 [5]: 100.27 |
| SLEYLP [TaPep35] | 109.54 | 106.58 | 102.99 | 119.04 | 1.93 | -4.82 | 7.64 | 2.77 | -3.84 | 12.93 | -20.10 | 10.87 | 8.65 | -7.23 | 109.88 | 105.12 | 118.20 | 106.32 | 98.64 | 104.29 | Cell viability, HEK293T, Data2 [4]: 94.35; Cell viability, HEK293T, Data3 [4]: 97.29; Average cell viability, HUVEC [5]: 100.35; Cell viability, HUVEC, Data1 [5]: 100.75; Cell viability, HUVEC, Data2 [5]: 100.03; Cell viability, HUVEC, Data3 [5]: 100.27 |
| SNDPVA [TaPep71] | 108.14 | 100.40 | 109.77 | 114.26 | 1.39 | -5.94 | 7.30 | 4.11 | -2.77 | 14.75 | -20.93 | 9.59 | 5.63 | -5.65 | 94.64 | 86.86 | 82.76 | 114.31 | 97.98 | 102.11 | Cell viability, HEK293T, Data2 [4]: 95.68; Cell viability, HEK293T, Data3 [4]: 96.15; Average cell viability, HUVEC [5]: 96.51; Cell viability, HUVEC, Data1 [5]: 91.41; Cell viability, HUVEC, Data2 [5]: 97.95; Cell viability, HUVEC, Data3 [5]: 100.19 |
| STGTIR [TaPep51] | 98.34 | 100.20 | 97.01 | 97.81 | 3.88 | -2.27 | 9.91 | 7.16 | -8.80 | 5.93 | -19.53 | 8.48 | 12.64 | -1.16 | 102.86 | 115.31 | 89.05 | 104.23 | 100.60 | 100.60 | Cell viability, HEK293T, Data2 [4]: 99.65; Cell viability, HEK293T, Data3 [4]: 101.55; Average cell viability, HUVEC [5]: 103.43; Cell viability, HUVEC, Data1 [5]: 102.66; Cell viability, HUVEC, Data2 [5]: 96.59; Cell viability, HUVEC, Data3 [5]: 111.04 |
| SVLEFS [TaPep52] | 105.65 | 105.38 | 103.19 | 108.37 | 2.84 | -2.08 | 7.49 | 4.10 | -6.24 | 5.72 | -20.56 | 3.13 | 9.54 | -1.51 | 109.12 | 112.31 | 112.11 | 102.93 | 99.31 | 102.87 | Cell viability, HEK293T, Data2 [4]: 97.95; Cell viability, HEK293T, Data3 [4]: 97.10; Average cell viability, HUVEC [5]: 102.10; Cell viability, HUVEC, Data1 [5]: 102.10; Cell viability, HUVEC, Data2 [5]: 88.93; Cell viability, HUVEC, Data3 [5]: 115.27 |
| TAEQVA [TaPep33] | 98.57 | 90.33 | 99.90 | 105.48 | 1.93 | -0.93 | 7.77 | 3.28 | -4.09 | 10.86 | -19.69 | 10.92 | 8.49 | -5.32 | 106.02 | 118.30 | 86.46 | 113.31 | 102.24 | 97.67 | Cell viability, HEK293T, Data2 [4]: 105.05; Cell viability, HEK293T, Data3 [4]: 104.01; Average cell viability, HUVEC [5]: 104.47; Cell viability, HUVEC, Data1 [5]: 106.25; Cell viability, HUVEC, Data2 [5]: 114.32; Cell viability, HUVEC, Data3 [5]: 92.84 |
